{"source": "patent US9527817B2", "about": "“Compounds for treating peripheral; neuropathies and other neurodegenerative; disorders” (THE JOHNS HOPKINS UNIVERSITY, priority 2011, dated 2016)", "key": {"primary DRG neurons": {"test_system": "primary DRG neurons", "assay": "Axon length assay, paclitaxel-induced distal axonal degeneration", "type": "cell-based, rat", "conditions": "24 hours exposure, βIII-tubulin staining", "method": "Measurements of axonal lengths to determine axonal degeneration induced by EQ and representative derivatives were done as described in Keswani et al., “FK506 is neuroprotective in a model of antiretroviral toxic neuropathy,” Annals of Neurology, 53(1):57-64 (2003). Initially, dorsal root ganglia (DRG) cells were harvested from embryonic rats (14.5 days old) according to standard protocol, then cells were plated onto collagen-coated glass coverslips and allowed to extend axons for 24 h in media (Neurobasal medium, 50 mM PS, 0.2% fetal bovine serum (FBS), 0.5 mM glutamine, 1×B-27 supplement, 0.2% glucose, 10 ng/mL glial cell line-derived neurotrophic factor (GDNF)). Paclitaxel (PTX), EQ and representative derivatives, or vehicle controls were added to the wells for another 24 h incubation. DRG cells were fixed with 4% paraformaldehyde and stained with anti-βIII-tubulin antibody to delineate the axons. Axon lengths were measured in multiple fields using a random sampling method as described by Keswani et al., 2003. All experiments were performed in triplicates and repeated twice. Statistical analysis was done using the ANOVA procedure. Correction for multiple comparisons was completed with Fisher's protected least significant difference. Bars marked with * indicate statistically significant differences with p<0.05."}, "AJ mice treated with PTX": {"test_system": "AJ mice treated with PTX", "assay": "Mouse model of chemotherapy induced peripheral neuropathy (paclitaxel)", "type": "in vivo", "conditions": "various doses daily, PTX 25 mg/kg i.v. days 1, 3, 5", "method": "In this model, animals develop thermal hypoalgesia and reduction in sensory nerve action potential (SNAP) amplitudes. AJ mice were given three doses of PTX at 25 mg/kg intravenously every other day (days 1, 3 and 5). Vehicle control or EQ was administered daily starting on day 1 and tissues were harvested at day 19. Immediately before tissue harvest, sensory nerve conduction studies and thermal sensation measurements were carried out."}, "[1]": {"test_system": "mouse model of HIV-associated sensory neuropathy", "assay": "Mouse model of HIV-associated sensory neuropathy", "type": "in vivo", "conditions": "75 μg/kg/day; data not shown"}, "diabetic rats": {"test_system": "diabetic rats", "assay": "Diabetic rats: distal axonal degeneration and autonomic testing", "type": "in vivo, rat", "conditions": "data not shown"}, "recombinant hsp90": {"target": "recombinant hsp90", "assay": "Fluorescence quenching binding assay", "conditions": "25° C.", "method": "For the fluorescence-quenching assay, fluorescence intensity was recorded on a SpectraMax Gemini XS plate reader (Molecular Devices, Palo Alto, Calif.) using a 96-well black PCR plate (Thermo Scientific, Logan, Utah). Compounds (10 mM in ethanol) were diluted with 50 mM Tris-HCl (pH 7.4) to obtain a solution with a 15 μM final concentration. Aliquots of proteins were added to the compounds solution and mixed with micro pipette by gently pulling in and drawing out the solution. Fluorescence intensities (λex=350 nm, λem=450 nm) were measured at 25° C. Equilibrium dissociation constant KD was obtained by fitting the data using the nonlinear least squares option of the GraphPad Prism software. All experiments were completed in duplicates and repeated at least three times.\nTo determine the binding efficiency, fluorescence quenching experiments were carried out with recombinant hsp90."}, "hsp90 [2]": {"test_system": "hsp90", "assay": "Neuroprotection by EQ with hsp90 siRNA or control siRNA", "type": "cell-based, rat", "method": "For the RNA inhibition experiments, transfection with siRNA was carried out according to the manufacturer's protocol. 50B11 cells were plated in 6-well plates in culture medium (Neurobasal medium, 10% fetal bovine serum (FBS), 0.5 mM glutamine, 1×B-27 supplement, 0.2% glucose) without antibiotics overnight and allowed to reach 50-70% confluence. On the second day, 1 μL siRNA oligomer (Ambion, Life Technologies, Carlsbad, Calif.) was diluted in 250 μL Opti-MEM media, and 5 μL Lipofectation 2000 (Invitrogen, Life Technologies, Carlsbad, Calif.) in another 250 μL Opti-MEM media. After 5 minutes incubation, dilutions were combined and incubated for 20 minutes at RT and then the oligomer-Lipofectation 2000 complexes were added to each well. […]\nThe protein isolation, protein electrophoresis (SDS-PAGE) and Western blotting assays were performed according to the instructions of the manufacturer. […] The measurements of total protein concentrations were performed using BCA kits (Thermo Scientific, Logan, Utah) on SpectraMax 340PC microplate reader (Molecular Devices, Palo Alto, Calif.). Samples (30 μg of total protein per well) and standards (SeeBlue® Plus2 Pre-Stained Standard, Invitrogen, Life Technologies, Carlsbad, Calif.) were loaded onto the wells (Ready Gel® 4-15% Tris-HCl, 50 μL^−1 gel; Bio-Rad, Hercules, Calif.). […]"}, "hsp90 [3]": {"test_system": "hsp90", "assay": "Colorimetric (malachite green) determination of hsp90 ATPase activity", "type": "biochemical", "conditions": "wide dose range of EQ", "method": "The assay procedure for the colorimetric determination of ATPase activity was based on Rowlands et al., “High-throughput Screening Assay for Inhibitors of Heat-Shock Protein 90 ATPase Activity,” Analytical Biochemistry 327:176-183 (2004). The malachite green reagent was prepared on the day of use. It contained malachite green (Sigma Aldrich, St. Louis, Mo.; 0.0812%, w/v), polyvinyl alcohol (Sigma Aldrich, St. Louis, Mo.; 2.32%, w/v), ammonium molybdate (Sigma Aldrich, St. Louis, Mo.; 5.72%, w/v, in 6 M HCl), and UltraPure Distilled Water (Invitrogen, Life Technologies, Carlsbad, Calif.), mixed in the ratio 2:1:1:2. The reagent was initially dark brown, and then it changed to a golden yellow after 2 h at room temperature, which meant it was ready for use. The assay buffer (pH 7.4) was 100 mM Tris-HCl, 20 mM KCl, 6 mM MgCl2.\nThe test compounds were dissolved in 100% (v/v) DMSO to give a stock concentration of 10 mM. This solution was diluted to six appropriate concentrations with test compounds in the assay buffer. 5 μL of each compound solution was added to each well of the Perkin-Elmer 96-well assay plate. The first two rows of the 96-well plate contained DMSO only, representing the control and background values, respectively. […] The absorbance at 620 nm was measured using the SpectraMAX 340PC microplate reader (Molecular Devices, Palo Alto, Calif.). […]"}, "hsp90 [4]": {"test_system": "hsp90", "assay": "Binding efficacy of paclitaxel to hsp90 in the presence of EQ", "method": "Further, it was known that paclitaxel binds to hsp90. To determine if EQ was binding to the same site and displacing paclitaxel, the binding efficacy of paclitaxel to hsp90 was measured. […] It is possible that EQ binds to hsp90 and modifies its chaperone activity for an important client protein."}, "[5]": {"test_system": "four different human breast cancer cell lines: MCE-7, SUM-159, TATD, and MDA-MB-231", "assay": "Antineoplastic activity of paclitaxel with or without EQ (cellular ATP levels)", "type": "cell-based", "conditions": "paclitaxel co-administered with varying concentrations of EQ", "method": "To determine the effect of EQ on the antineoplastic activity of paclitaxel, the conditions for culturing four cancer cell lines and measuring the ATP levels were optimized for the 96-well plate format. Briefly, 1500 cells/well in media (MDA-MB-231 in DMEM with 10% FBS; MCF-7 in DMEM with 10% FBS; TATD in RPMI with 10% FBS; SUM159 in DMEM/F-12 (250 mL/250 mL) with 5% FBS, 500 μL of 10 mg/mL insulin and 25 μL of 10 mg/mL hydrocordisol) were plated in 96-well plates for 24 h. Constant concentrations of paclitaxel (PTX) with or without EQ were added to the wells for another 24 h. Cellular ATP levels were measured using ViaLight Plus kit (Cambrex) according to the manufacturer's protocol on a LMaxI microplate reader (Molecular Devices, Palo Alto, Calif.)."}}, "note": "Entries after “also recorded” stand apart in the source; their conditions may differ."}
{"substance": "Ethoxyquin [EQ]", "values": [{"measurement": "distal axonal degeneration induced by PTX (axon lengths)", "setting": "primary DRG neurons", "value": "partially prevented distal axonal degeneration induced by PTX"}, {"measurement": "sensory nerve action potential (SNAP) amplitude", "setting": "AJ mice treated with PTX; tail sensory nerves", "value": "prevented this reduction in SNAP amplitude"}, {"measurement": "distal axonal degeneration and intraepidermal nerve fiber density in the footpads", "setting": "AJ mice treated with PTX", "value": "loss of distal axons was prevented"}, {"measurement": "thermal hypoalgesia induced by PTX", "setting": "AJ mice treated with PTX", "value": "prevented"}, {"measurement": "distal axonal degeneration", "setting": "[1]", "value": "prevents distal axonal degeneration"}, {"measurement": "distal axonal degeneration", "setting": "diabetic rats; 75 μg/kg/day", "value": "reverses distal axonal degeneration"}, {"measurement": "erectile dysfunction induced by diabetes (autonomic testing)", "setting": "diabetic rats", "value": "prevents erectile dysfunction induced by diabetes"}, {"measurement": "Kd", "setting": "recombinant hsp90", "value": 0.28, "unit": "µM"}, {"measurement": "neuroprotection against paclitaxel with hsp90 siRNA", "setting": "hsp90 [2]; PTX+100 nM EQ (+) siRNA, hsp90 downregulated", "value": "the neuroprotection by EQ disappeared; also recorded: reverses neuroprotection by EQ"}, {"measurement": "neuroprotection against paclitaxel without hsp90 siRNA", "setting": "hsp90 [2]; PTX+100 nM EQ (−) siRNA", "value": "Neuroprotection by EQ can be seen"}, {"measurement": "effect on ATPase activity of hsp90", "setting": "hsp90 [3]", "value": "does not affect the ATPase activity of hsp90; also recorded: does not alter the ATPase activity of hsp90"}, {"measurement": "effect on binding of paclitaxel to hsp90", "setting": "hsp90 [4]", "value": "did not affect the binding of paclitaxel to hsp90; also recorded: does not alter the binding efficacy of paclitaxel to hsp90"}, {"measurement": "effect on paclitaxel's reduction of cell viability (relative ATP levels)", "setting": "[5]", "value": "did not affect the ability of paclitaxel to reduce cell viability; also recorded: no significant change in reduced cell viability was observed"}]}
